Assay results as given in patent publication US10988477B2 (Merck Patent GmbH, priority 2018, dated 2021).

Biological target: GCN2 kinase (Homo sapiens, UniProt Q9P2K8)
Assay: GCN2 enzyme inhibition assay (Transcreener ADP2 fluorescence polarization)
Assay type: biochemical
Conditions: Enzyme activity for compounds of Formula IV; Ki(app), 280 μM ATP, 25° C.
Experimental: Compounds were screened for their ability to inhibit GCN2 kinase activity using a Transcreener® ADP^2 fluorescence polarization assay that detects ADP levels (BellBrook Labs, WI). Assays were carried out in a buffer consisting of 25 mM Tris-HCl (pH 7.5), 50 mM NaCl, 10 mM MgCl2 and 1 mM DTT. Final substrate concentrations were 280 μM ATP and 200 μM peptidic substrate ([…]-OH [(RS)7], Bachem, Switzerland). Assays were carried out at 25° C. in the presence of a (typical) final concentration of 4 nM GCN2 kinase. An assay buffer containing GCN2 kinase and (RS)7 was prepared. 4.7 μL of this stock solution was placed per well of a black, low volume, 384-well microtitre plate (e.g. catalogue number 3676, Corning Inc., NY). To this was added […] of DMSO containing serial dilutions of the test compound (typical final concentrations of test compound were 0 to 8 μM). The plate was incubated for 10 minutes at 25° C. prior to the addition of 4.7 μL of ATP stock buffer to initiate the enzyme reaction. The reaction was allowed to proceed for 1 hour at 25° C., prior to the addition of 10 μL detection buffer (consisting of appropriate concentrations of ADP^2 antibody and ADP Alexa633 tracer in 1× stop and detect buffer as supplied by BellBrook Labs). […] Percentage inhibition of enzyme activity was then calculated at each compound dose. IC50 and Ki(app) (using known assay and kinetic parameters) values were calculated from percentage inhibition data using a non-linear, tight-binding algorithm. All data analysis was undertaken using the Screener® software package (Genedata, Switzerland).

GCN2 kinase, sequence (Q9P2K8 whole entry): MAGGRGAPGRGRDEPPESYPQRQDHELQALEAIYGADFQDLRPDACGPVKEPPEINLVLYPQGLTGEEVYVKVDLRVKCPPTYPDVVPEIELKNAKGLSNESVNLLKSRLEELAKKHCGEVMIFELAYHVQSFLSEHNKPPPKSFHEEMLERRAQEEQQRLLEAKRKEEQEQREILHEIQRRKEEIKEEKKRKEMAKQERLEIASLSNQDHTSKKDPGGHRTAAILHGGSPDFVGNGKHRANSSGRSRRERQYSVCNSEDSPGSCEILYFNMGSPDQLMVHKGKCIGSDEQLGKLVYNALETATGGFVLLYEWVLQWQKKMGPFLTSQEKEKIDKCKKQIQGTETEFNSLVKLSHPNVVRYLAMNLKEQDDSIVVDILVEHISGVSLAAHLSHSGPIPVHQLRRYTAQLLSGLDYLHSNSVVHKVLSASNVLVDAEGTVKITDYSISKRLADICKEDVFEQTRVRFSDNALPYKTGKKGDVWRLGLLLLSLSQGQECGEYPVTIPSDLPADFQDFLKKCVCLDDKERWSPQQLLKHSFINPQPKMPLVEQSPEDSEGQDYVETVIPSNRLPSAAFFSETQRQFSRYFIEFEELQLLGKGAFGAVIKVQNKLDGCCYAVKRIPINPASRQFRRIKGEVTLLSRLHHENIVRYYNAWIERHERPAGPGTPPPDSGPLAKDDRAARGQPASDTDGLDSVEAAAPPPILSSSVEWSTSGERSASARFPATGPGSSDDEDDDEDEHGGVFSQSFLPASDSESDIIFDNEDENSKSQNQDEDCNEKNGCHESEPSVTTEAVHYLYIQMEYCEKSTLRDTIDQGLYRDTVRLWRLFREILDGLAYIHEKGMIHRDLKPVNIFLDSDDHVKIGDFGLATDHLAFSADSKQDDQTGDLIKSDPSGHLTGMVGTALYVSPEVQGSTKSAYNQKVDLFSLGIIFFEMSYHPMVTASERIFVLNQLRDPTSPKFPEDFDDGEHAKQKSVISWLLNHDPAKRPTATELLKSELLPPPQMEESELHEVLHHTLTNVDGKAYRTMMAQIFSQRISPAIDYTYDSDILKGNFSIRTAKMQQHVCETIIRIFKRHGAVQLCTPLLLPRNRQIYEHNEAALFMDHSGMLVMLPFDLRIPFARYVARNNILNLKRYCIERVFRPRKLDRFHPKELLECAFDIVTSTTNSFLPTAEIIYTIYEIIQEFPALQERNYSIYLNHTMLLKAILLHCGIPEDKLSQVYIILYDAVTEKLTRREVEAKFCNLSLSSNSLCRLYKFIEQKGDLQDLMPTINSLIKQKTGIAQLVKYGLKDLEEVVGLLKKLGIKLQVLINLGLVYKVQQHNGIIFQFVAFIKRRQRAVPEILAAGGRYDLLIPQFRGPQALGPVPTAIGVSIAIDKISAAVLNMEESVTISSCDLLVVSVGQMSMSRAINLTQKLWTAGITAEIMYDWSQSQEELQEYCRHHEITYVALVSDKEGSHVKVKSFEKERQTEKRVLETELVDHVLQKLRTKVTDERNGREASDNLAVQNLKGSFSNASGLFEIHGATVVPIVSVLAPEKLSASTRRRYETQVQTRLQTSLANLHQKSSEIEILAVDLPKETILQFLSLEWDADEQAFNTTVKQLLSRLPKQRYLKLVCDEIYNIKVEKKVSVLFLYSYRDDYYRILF

Row | Ki | Compound
1 | 100 to 1000 nM | CC1CN(c2ccnc(-c3cnc4cnc(C(F)(F)F)cn34)n2)C(C)C(c2cn[nH]c2)N1 (single isomer, unassigned) [IV-223, 3-(4-(2,5-Dimethyl-3-(1H-pyrazol-4-yl)piperazin-1-yl)pyrimidin-2-yl)-6-(trifluoromethyl)imidazo[1,2-a]pyrazine]
2 | 100 to 1000 nM | CC1C(c2cn[nH]c2)NCCN1c1ccnc(-c2cnc3cnc(Cl)cn23)n1 (single isomer, unassigned) [IV-229, 6-Chloro-3-(4-(2-methyl-3-(1H-pyrazol-4-yl)piperazin-1-yl)pyrimidin-2-yl)imidazo[1,2-a]pyrazine]
3 | 100 to 1000 nM | FC(F)(F)c1cn2c(-c3nccc(N4CCNC(c5cn[nH]c5)C4)n3)cnc2cn1 (single isomer, unassigned) [IV-231, 3-(4-(3-(1H-Pyrazol-4-yl)piperazin-1-yl)pyrimidin-2-yl)-6-(trifluoromethyl)imidazo[1,2-a]pyrazine]
4 | 10 to 100 nM | FC(F)(F)c1cn2c(-c3nccc(N4CCNC(c5cn[nH]c5)C4)n3)cnc2cn1 (single isomer, unassigned) [IV-232, 3-(4-(3-(1H-Pyrazol-4-yl)piperazin-1-yl)pyrimidin-2-yl)-6-(trifluoromethyl)imidazo[1,2-a]pyrazine]
5 | 100 to 1000 nM | Clc1cn2c(-c3nccc(N4CCNC(c5cn[nH]c5)C4)n3)cnc2cn1 (single isomer, unassigned) [IV-237, 3-(4-(3-(1H-Pyrazol-4-yl)piperazin-1-yl)pyrimidin-2-yl)-6-chloroimidazo[1,2-a]pyrazine]
6 | 10 to 100 nM | Clc1cn2c(-c3nccc(N4CCNC(c5cn[nH]c5)C4)n3)cnc2cn1 (single isomer, unassigned) [IV-238, 3-(4-(3-(1H-Pyrazol-4-yl)piperazin-1-yl)pyrimidin-2-yl)-6-chloroimidazo[1,2-a]pyrazine]
7 | 100 to 1000 nM | CC1C(c2cn[nH]c2)OCCN1c1ccnc(-c2cnc3cnc(Cl)cn23)n1 (single isomer, unassigned) [IV-244, 4-(2-(6-Chloroimidazo[1,2-a]pyrazin-3-yl)pyrimidin-4-yl)-3-methyl-2-(1H-pyrazol-4-yl)morpholine]
8 | 100 to 1000 nM | CC1CN(c2ccnc(-c3cnc4cnc(Cl)cn34)n2)C(C)C(c2cn[nH]c2)N1 (single isomer, unassigned) [IV-246, 6-Chloro-3-(4-(2,5-dimethyl-3-(1H-pyrazol-4-yl)piperazin-1-yl)pyrimidin-2-yl)imidazo[1,2-a]pyrazine]
9 | 100 to 1000 nM | NC(=O)c1cn2c(-c3nccc(N4CCN5C(=O)CCCC5C4)n3)cnc2cn1 (single isomer, unassigned) [IV-273, 3-(4-(6-Oxooctahydro-2H-pyrido[1,2-a]pyrazin-2-yl)pyrimidin-2-yl)imidazo[1,2-a]pyrazine-6-carboxamide]
10 | 10 to 100 nM | NC(=O)c1cn2c(-c3nccc(N4CCN5C(=O)CCCC5C4)n3)cnc2cn1 (single isomer, unassigned) [IV-274, 3-(4-(6-Oxooctahydro-2H-pyrido[1,2-a]pyrazin-2-yl)pyrimidin-2-yl)imidazo[1,2-a]pyrazine-6-carboxamide]
11 | 100 to 1000 nM | C[C@H]1CN(c2cccc(-c3cnc4cnc(C(F)F)cn34)n2)C[C@@H](CNS(C)(=O)=O)C1(F)F (single isomer, unassigned) [IV-275]
12 | < 10 nM | Cc1[nH]ncc1C1NC(C)CN(c2ccnc(-c3cnc4cnc(Cl)cn34)n2)C1C (single isomer, unassigned) [IV-282, 6-Chloro-3-(4-(2,5-dimethyl-3-(5-methyl-1H-pyrazol-4-yl)piperazin-1-yl)pyrimidin-2-yl)imidazo[1,2-a]pyrazine]
13 | 100 to 1000 nM | Cc1[nH]ncc1C1NC(C)CN(c2ccnc(-c3cnc4cnc(Cl)cn34)n2)C1C (single isomer, unassigned) [IV-283, 6-Chloro-3-(4-(2,5-dimethyl-3-(5-methyl-1H-pyrazol-4-yl)piperazin-1-yl)pyrimidin-2-yl)imidazo[1,2-a]pyrazine]
14 | 10 to 100 nM | CC1CN(c2ccnc(-c3cnc4cnc(Br)cn34)n2)C(C)C(c2cn[nH]c2)N1 (single isomer, unassigned) [IV-287, 6-Bromo-3-(4-(2,5-dimethyl-3-(1H-pyrazol-4-yl)piperazin-1-yl)pyrimidin-2-yl)imidazo[1,2-a]pyrazine]
15 | < 10 nM | CC1C(c2cn[nH]c2)OCCN1c1ccnc(-c2cnc3cnc(C#N)cn23)n1 (single isomer, unassigned) [IV-290, 3-(4-(3-Methyl-2-(1H-pyrazol-4-yl)morpholino)pyrimidin-2-yl)imidazo[1,2-a]pyrazine-6-carbonitrile]
16 | 100 to 1000 nM | CC1C(c2cn[nH]c2)OCCN1c1ccnc(-c2cnc3cnc(C#N)cn23)n1 (single isomer, unassigned) [IV-291, 3-(4-(3-Methyl-2-(1H-pyrazol-4-yl)morpholino)pyrimidin-2-yl)imidazo[1,2-a]pyrazine-6-carbonitrile]
17 | 10 to 100 nM | O=C1CCCC2CN(c3ccnc(-c4cnc5cnc(Cl)cn45)n3)CCN12 (single isomer, unassigned) [IV-293, 2-(2-(6-Chloroimidazo[1,2-a]pyrazin-3-yl)pyrimidin-4-yl)octahydro-6H-pyrido[1,2-a]pyrazin-6-one]
18 | 10 to 100 nM | O=C1CCCC2CN(c3ccnc(-c4cnc5cnc(Cl)cn45)n3)CCN12 (single isomer, unassigned) [IV-294, 2-(2-(6-Chloroimidazo[1,2-a]pyrazin-3-yl)pyrimidin-4-yl)octahydro-6H-pyrido[1,2-a]pyrazin-6-one]
19 | 100 to 1000 nM | CCN1C(C)CN(c2ccnc(-c3cnc4cnc(C(F)(F)F)cn34)n2)C(C)C1c1cn[nH]c1 (single isomer, unassigned) [IV-295, 3-(4-(4-Ethyl-2,5-dimethyl-3-(1H-pyrazol-4-yl)piperazin-1-yl)pyrimidin-2-yl)-6-(trifluoromethyl)imidazo[1,2-a]pyrazine]
20 | < 10 nM | CCN1C(C)CN(c2ccnc(-c3cnc4cnc(C(F)(F)F)cn34)n2)C(C)C1c1cn[nH]c1 (single isomer, unassigned) [IV-296, 3-(4-(4-Ethyl-2,5-dimethyl-3-(1H-pyrazol-4-yl)piperazin-1-yl)pyrimidin-2-yl)-6-(trifluoromethyl)imidazo[1,2-a]pyrazine]
21 | 10 to 100 nM | CC1CC(c2cn[nH]c2)C(C)N(c2ccnc(-c3cnc4cnc(C(F)(F)F)cn34)n2)C1 (single isomer, unassigned) [IV-310]
22 | 100 to 1000 nM | CC1CN(c2ccnc(-c3cnc4cnc(C#N)cn34)n2)C(C)C(c2cn[nH]c2)N1 (single isomer, unassigned) [IV-313, 3-(4-(2,5-Dimethyl-3-(1H-pyrazol-4-yl)piperazin-1-yl)pyrimidin-2-yl)imidazo[1,2-a]pyrazine-6-carbonitrile]
23 | < 10 nM | CC1CN(c2ccnc(-c3cnc4cnc(C#N)cn34)n2)C(C)C(c2cn[nH]c2)N1 (single isomer, unassigned) [IV-314, 3-(4-(2,5-Dimethyl-3-(1H-pyrazol-4-yl)piperazin-1-yl)pyrimidin-2-yl)imidazo[1,2-a]pyrazine-6-carbonitrile]
24 | 10 to 100 nM | CC1C(c2cn[nH]c2)OCCN1c1ccnc(-c2cnc3cnc(C(F)(F)F)cn23)n1 (single isomer, unassigned) [IV-315, 3-Methyl-2-(1H-pyrazol-4-yl)-4-(2-(6-(trifluoromethyl)imidazo[1,2-a]pyrazin-3-yl)pyrimidin-4-yl)morpholine]
25 | 100 to 1000 nM | CC1C(c2cn[nH]c2)OCCN1c1ccnc(-c2cnc3cnc(Cl)cn23)n1 (single isomer, unassigned) [IV-316, 4-(2-(6-Chloroimidazo[1,2-a]pyrazin-3-yl)pyrimidin-4-yl)-3-methyl-2-(1H-pyrazol-4-yl)morpholine]
26 | 10 to 100 nM | CC1CN(c2nc(-c3cnc4cnc(C(F)(F)F)cn34)ncc2F)C(C)C(c2cn[nH]c2)N1 (single isomer, unassigned) [IV-324, 3-(4-(2,5-Dimethyl-3-(1H-pyrazol-4-yl)piperazin-1-yl)-5-fluoropyrimidin-2-yl)-6-(trifluoromethyl)imidazo[1,2-a]pyrazine]
27 | < 10 nM | CC1C(c2cn[nH]c2)OCCN1c1ccnc(-c2cnc3cnc(Br)cn23)n1 (single isomer, unassigned) [IV-328, 4-(2-(6-Bromoimidazo[1,2-a]pyrazin-3-yl)pyrimidin-4-yl)-3-methyl-2-(1H-pyrazol-4-yl)morpholine]
28 | 10 to 100 nM | CC1C(c2cn[nH]c2)OCCN1c1ccnc(-c2cnc3cnc(Br)cn23)n1 (single isomer, unassigned) [IV-329, 4-(2-(6-Bromoimidazo[1,2-a]pyrazin-3-yl)pyrimidin-4-yl)-3-methyl-2-(1H-pyrazol-4-yl)morpholine]
29 | 10 to 100 nM | CC1CNC(c2cn[nH]c2)CN1c1ccnc(-c2cnc3cnc(C(F)(F)F)cn23)n1 (single isomer, unassigned) [IV-333, 3-(4-(2-Methyl-5-(1H-pyrazol-4-yl)piperazin-1-yl)pyrimidin-2-yl)-6-(trifluoromethyl)imidazo[1,2-a]pyrazine]
30 | 100 to 1000 nM | CC1CN(c2nc(-c3cnc4cnc(C(F)(F)F)cn34)ncc2F)CC(c2cn[nH]c2)O1 (single isomer, unassigned) [IV-334, 4-(5-Fluoro-2-(6-(trifluoromethyl)imidazo[1,2-a]pyrazin-3-yl)pyrimidin-4-yl)-2-methyl-6-(1H-pyrazol-4-yl)morpholine]
